pEC50: −log10 of the molar value. Activity calls are given as the source filed them. The rule behind the calls is not given here. Where only a bound is given, the exact number is not on record here.

A short description of series [1]: Cytotoxicity against monkey LLC-MK2 cells assessed as reduction in cell viability incubated for 24 hrs by MTT assay. In kind it is toxicity, cell-based. Particulars: Macaca mulatta (monkey).
Series [2] concerns Trypanosoma cruzi. The series can be described thus: Antitrypanosomal activity against Trypanosoma cruzi Y trypomastigotes infected in monkey LLC-MK2 cells assessed as reduction in cell death inducing capability incubated for 24 hrs by hemocytometer chamber based analysis. In kind it is functional, organism-based. As to conditions: LLC-MK2, 24 h.
Series [3] is described as follows: Selectivity index, ratio of EC50 for Cytotoxicity against monkey LLC-MK2 cells to EC50 for antitrypanosomal activity against Trypanosoma cruzi Y trypomastigotes infected in monkey LLC-MK2 cells. In kind it is toxicity, cell-based. As to conditions: read-out: Ratio EC50.
In series [4] the test system is Trypanosoma cruzi. Briefly: Induction of membrane damage in Trypanosoma cruzi Y epimastigotes at EC50 measured after 12 hrs by SEM analysis. In kind it is organism-based. As to conditions: Cell membrane.
The subject of series [5] is Trypanosoma cruzi. Briefly: Antitrypanosomal activity against Trypanosoma cruzi Y epimastigotes assessed as parasite growth inhibition measured after 48 hrs by hemocytometer chamber based analysis. In kind it is functional, organism-based.
A short description of series [6]: Selectivity index, ratio of EC50 for Cytotoxicity against monkey LLC-MK2 cells to EC50 for antitrypanosomal activity against Trypanosoma cruzi Y amastigotes infected in monkey LLC-MK2 cells assessed as reduction in reduction in amastigotes per 100 cells measured after 48 hrs by Giemsa staining based analysis. As to conditions: read-out: Ratio EC50. In kind it is toxicity, cell-based.

In series [7] the test system is Trypanosoma cruzi. Briefly: Induction of cell death in Trypanosoma cruzi Y epimastigotes assessed as dead cells at 7.2 uM incubated for 24 hrs by Annexin V/7-AAD staining based flow cytometric analysis (reference value: 1.13 %). In kind it is functional. A general note: A flow cytometer gives signals particle by particle.
Series [8] relates to Trypanosoma cruzi. The series can be described thus: Induction of cell death in Trypanosoma cruzi Y epimastigotes assessed as live cells at 7.2 uM incubated for 24 hrs by Annexin V/7-AAD staining based flow cytometric analysis (reference value: 98.6 %). In kind it is functional.
The test system of series [9] is Trypanosoma cruzi. The series can be described thus: Induction of mitochondrial membrane potential loss in Trypanosoma cruzi Y epimastigotes at 7.2 uM incubated for 24 hrs by Rhodamine 123 staining based flow cytometric analysis relative to control. In kind it is functional.
The test system of series [10] is Trypanosoma cruzi. Briefly: Antitrypanosomal activity against Trypanosoma cruzi Y epimastigotes assessed as parasite growth inhibition measured after 72 hrs by hemocytometer chamber based analysis. In kind it is functional, organism-based.
In series [11] the test system is Trypanosoma cruzi. Briefly: Induction of cell death in Trypanosoma cruzi Y epimastigotes assessed as early apoptotic cells at 7.2 uM incubated for 24 hrs by Annexin V/7-AAD staining based flow cytometric analysis (reference value: 0.11 %). In kind it is functional.
The test system of series [12] is Trypanosoma cruzi. Briefly: Induction of cell death in Trypanosoma cruzi Y epimastigotes assessed as late apoptotic cells at 7.2 uM incubated for 24 hrs by Annexin V/7-AAD staining based flow cytometric analysis (reference value: 0.12 %). In kind it is functional.
Series [13] has as its system Trypanosoma cruzi. The series can be described thus: Antitrypanosomal activity against Trypanosoma cruzi Y epimastigotes assessed as parasite growth inhibition measured after 24 hrs by hemocytometer chamber based analysis. In kind it is functional, organism-based.
Series [14] is described as follows: Cytotoxicity against monkey LLC-MK2 cells assessed as reduction in cell viability incubated for 48 hrs by MTT assay. As to conditions: Macaca mulatta (monkey). In kind it is toxicity, cell-based. (Tetrazolium dyes change colour on reduction, which living cells bring about.)
The subject of series [15] is Trypanosoma cruzi. Briefly: Antitrypanosomal activity against Trypanosoma cruzi Y amastigotes infected in monkey LLC-MK2 cells assessed as reduction in reduction in amastigotes per 100 cells measured after 24 hrs by Giemsa staining based analysis. In kind it is functional, organism-based. Particulars: LLC-MK2, 24 h.
Series [16] is described as follows: Selectivity index, ratio of EC50 for Cytotoxicity against monkey LLC-MK2 cells to EC50 for antitrypanosomal activity against Trypanosoma cruzi Y amastigotes infected in monkey LLC-MK2 cells assessed as reduction in reduction in amastigotes per 100 cells measured after 24 hrs by Giemsa staining based analysis. In kind it is toxicity, cell-based. As to conditions: read-out: Ratio EC50.

Series [17] concerns Trypanosoma cruzi. The series can be described thus: Induction of oxidative stress in Trypanosoma cruzi Y epimastigotes assessed as increase in ROS formation at 7.2 uM incubated for 24 hrs by DCFH-DA staining based analysis relative to control. In kind it is functional.
Series [18] concerns Trypanosoma cruzi. The series can be described thus: Antitrypanosomal activity against Trypanosoma cruzi Y amastigotes infected in monkey LLC-MK2 cells assessed as reduction in reduction in amastigotes per 100 cells measured after 48 hrs by Giemsa staining based analysis. In kind it is functional, organism-based. Particulars: LLC-MK2, 48 h.
In series [19] the test system is Trypanosoma cruzi. Briefly: Induction of oxidative stress in Trypanosoma cruzi Y epimastigotes assessed as increase in ROS formation at 13.5 uM incubated for 24 hrs by DCFH-DA staining based analysis relative to control. In kind it is functional.
Series [20] relates to Trypanosoma cruzi. The series can be described thus: Induction of cell death in Trypanosoma cruzi Y epimastigotes assessed as late apoptotic cells at 13.5 uM incubated for 24 hrs by Annexin V/7-AAD staining based flow cytometric analysis (reference value: 0.12 %). In kind it is functional.
For series [21], the system named is Trypanosoma cruzi. The series can be described thus: Induction of cell death in Trypanosoma cruzi Y epimastigotes assessed as early apoptotic cells at 13.5 uM incubated for 24 hrs by Annexin V/7-AAD staining based flow cytometric analysis (reference value: 0.11 %). In kind it is functional.
Series [22] has as its system Trypanosoma cruzi. Briefly: Induction of cell death in Trypanosoma cruzi Y epimastigotes assessed as dead cells at 13.5 uM incubated for 24 hrs by Annexin V/7-AAD staining based flow cytometric analysis (reference value: 1.13 %). In kind it is functional.
In series [23] the test system is Trypanosoma cruzi. The series can be described thus: Induction of cell death in Trypanosoma cruzi Y epimastigotes assessed as live cells at 13.5 uM incubated for 24 hrs by Annexin V/7-AAD staining based flow cytometric analysis (reference value: 98.6 %). In kind it is functional.
Series [24] relates to Trypanosoma cruzi. Briefly: Induction of cell death in Trypanosoma cruzi Y epimastigotes assessed as late apoptotic cells at 125 uM incubated for 24 hrs by Annexin V/7-AAD staining based flow cytometric analysis (reference value: 0.12 %). In kind it is functional.
Series [25] relates to Trypanosoma cruzi. The series can be described thus: Induction of cell death in Trypanosoma cruzi Y epimastigotes assessed as live cells at 125 uM incubated for 24 hrs by Annexin V/7-AAD staining based flow cytometric analysis (reference value: 98.6 %). In kind it is functional.
Series [26] deals with Trypanosoma cruzi. Briefly: Induction of cell death in Trypanosoma cruzi Y epimastigotes assessed as dead cells at 125 uM incubated for 24 hrs by Annexin V/7-AAD staining based flow cytometric analysis (reference value: 1.13 %). In kind it is functional.
In series [27] the test system is Trypanosoma cruzi. Briefly: Induction of mitochondrial membrane potential loss in Trypanosoma cruzi Y epimastigotes at 125 uM incubated for 24 hrs by Rhodamine 123 staining based flow cytometric analysis relative to control. In kind it is functional.
For series [28], the system named is Trypanosoma cruzi. Briefly: Induction of cell death in Trypanosoma cruzi Y epimastigotes assessed as early apoptotic cells at 125 uM incubated for 24 hrs by Annexin V/7-AAD staining based flow cytometric analysis (reference value: 0.11 %). In kind it is functional.
Series [29] relates to Trypanosoma cruzi. The series can be described thus: Antitrypanosomal activity against Trypanosoma cruzi Y trypomastigotes infected in monkey LLC-MK2 cells assessed as reduction in cell death inducing capability incubated for 24 hrs by Neubauer chamber based analysis. In kind it is functional, organism-based. Particulars: LLC-MK2, 24 h.

In general, EC50 refers to the concentration at which the effect is half-maximal. For orientation: pEC50 means the negative decadic logarithm of the EC50, by convention in mol/L. With H-FWGTLAKWALRAIPA-OH, in [1], the EC50 at 24 h came to 38.5 µM. Besides, the pEC50 in the series on Trypanosoma cruzi [2] is 5.81. The selectivity ratio in series [3] was found to be 24.7.
The matching figures for H-FWGTLARWALKAIPA-OH: 55 µM, 5.29 and 10.8.
H-FWGKLAKWALKAIPA-OH: the EC50 at 24 h in series [1] came to 60 µM. The pEC50 in the series with Trypanosoma cruzi [2] was 5.99. The selectivity ratio in series [3] came to 58.2.
Take H-FWGTLAKWALKAIPA-OH: the EC50 at 24 h in series [1] was above 50 µM. Moreover, in the series on Trypanosoma cruzi [2], the pEC50 is below 4.30. The selectivity ratio in [3] was below 50.
Turning to H-AIPAAMGMKQNK-OH, the outcome in the series on Trypanosoma cruzi [4] was Active. For the same molecule, the pEC50 with Trypanosoma cruzi [5] was 5.01; in the series on Trypanosoma cruzi [10], 5.06; in the series with Trypanosoma cruzi [2], 6.23; with Trypanosoma cruzi [13], 5.14; in the series with Trypanosoma cruzi [15], 5.88; in the series with Trypanosoma cruzi [18] it was 6.43. In series [6], the selectivity ratio at 48 h is 96.7. Besides, the Activity is given as 12.42% in the series with Trypanosoma cruzi [7]; 85.36% in the series on Trypanosoma cruzi [8]; 65% in the series with Trypanosoma cruzi [9]; 1.13% with Trypanosoma cruzi [11]; 1.09% in the series on Trypanosoma cruzi [12]; 40% with Trypanosoma cruzi [17]. Also, the EC50 at 24 h in series [1] is 43.1 µM. The EC50 at 48 h in series [14] was 35.8 µM. Besides, the selectivity ratio in [3] worked out at 72.9. The selectivity ratio at 24 h in series [16] is 32.6.
Turning to H-FWGTLAKWARKAIPA-OH, the EC50 at 24 h in [1] stood at 25.1 µM. Also, the pEC50 in the series on Trypanosoma cruzi [2] was 5.48. For the same molecule, the selectivity ratio in [3] was determined as 7.5.
Regarding H-FWKTLAKWALKAIPA-OH, the result in the series with Trypanosoma cruzi [4] was Active. For the same molecule, the Activity was determined as 58% with Trypanosoma cruzi [19]; 1.04% with Trypanosoma cruzi [20]; 0.01% with Trypanosoma cruzi [21]; 25.06% in the series with Trypanosoma cruzi [22]; 74.1% in the series on Trypanosoma cruzi [23]. For the same molecule, the pEC50 in the series with Trypanosoma cruzi [5] was 4.77; in the series with Trypanosoma cruzi [10], 4.71; in the series with Trypanosoma cruzi [2], 6.07; in the series on Trypanosoma cruzi [13] it was 4.87; in the series with Trypanosoma cruzi [15], 6.04; with Trypanosoma cruzi [18], 6.55. Moreover, the selectivity ratio at 48 h in series [6] is 157. In addition, the EC50 at 24 h in series [1] is 73.4 µM. In addition, in series [14], the EC50 at 48 h is 43.9 µM. For the same molecule, the selectivity ratio in [3] came to 85.3. Moreover, the selectivity ratio at 24 h in series [16] was found to be 80.7.
Turning to H-FWGTLAKWAKKAIPA-OH, in series [1], the EC50 at 24 h was 97 µM. Besides, the pEC50 in the series on Trypanosoma cruzi [2] was 5.96.
Regarding H-FWGRLAKWALKAIPA-OH, in [1], the EC50 at 24 h was determined as 9.6 µM. The pEC50 in the series with Trypanosoma cruzi [2] was 5.96. Moreover, in series [3], the selectivity ratio came out at 8.8.
With `O=C(Cn1ccnc1[N+](=O)[O-])NCc1ccccc1` [BENZNIDAZOLE], the Activity in the series with Trypanosoma cruzi [24] was 1.01%; with Trypanosoma cruzi [25], 93.22%; in the series with Trypanosoma cruzi [26], 5.71%; with Trypanosoma cruzi [27] it was 70%; in the series on Trypanosoma cruzi [28], 0.06%. The pEC50 with Trypanosoma cruzi [5] is 4.43; in the series on Trypanosoma cruzi [10], 4.66; with Trypanosoma cruzi [2], 3.79; with Trypanosoma cruzi [13], 3.94. The EC50 at 24 h in series [1] turned out to be 503 µM. Moreover, in [3], the selectivity ratio is 3.11.
On to H-GTLAKWALKAIPA-OH, for which the half-maximal effective concentration (EC50) at 24 h in series [1] was determined as 189 µM. Further, in the series on Trypanosoma cruzi [2], the pEC50 is 5.06. For the same molecule, the selectivity ratio in [3] was found to be 21.6.
With H-FWRTLAKWALKAIPA-OH, in [1], the concentration for a half-maximal effect (EC50) at 24 h was 13 µM. Further, the pEC50 with Trypanosoma cruzi [2] was 6.16. In addition, the selectivity ratio in series [3] was 18.8.
Consider H-FWGTLAKWALKAIPAAMGMKQNK-OH, for which the pEC50 in the series with Trypanosoma cruzi [5] was 5.44; with Trypanosoma cruzi [29], 6.49; in the series on Trypanosoma cruzi [10], 5.62; with Trypanosoma cruzi [13] it was 5.33. Moreover, in series [1], the EC50 at 24 h came to 25.7 µM. Also, in series [3], the selectivity ratio was 80.3.

For the origin of these results see ChEMBL document CHEMBL5108005, “Rational design of a trypanocidal peptide derived from Dinoponera quadriceps venom” (Eur J Med Chem, 2022).
